These results are taken from patent US12466822B2, “Heterocyclic compounds as immunomodulators” (Incyte Corporation, priority 2016, dated 2025).

Molecules are shown by their SMILES. Where only a bound is given, the exact number is not on record here.

The target of the assay is T1, PD-1/PD-L1 protein/protein interaction (recombinant human PD-L1 protein (19-238), recombinant human PD-1 protein (25-167)) (Homo sapiens, UniProt Q9NZQ7).
T1 construct: Recombinant human PD-L1 protein (19-238) with a His-tag at the C-terminus; purchased AcroBiosystems PD1-H5229 (PD-L1-His); PD1-H5257 (PD-1-Fc)
T1 sequence (Q9NZQ7 19-238): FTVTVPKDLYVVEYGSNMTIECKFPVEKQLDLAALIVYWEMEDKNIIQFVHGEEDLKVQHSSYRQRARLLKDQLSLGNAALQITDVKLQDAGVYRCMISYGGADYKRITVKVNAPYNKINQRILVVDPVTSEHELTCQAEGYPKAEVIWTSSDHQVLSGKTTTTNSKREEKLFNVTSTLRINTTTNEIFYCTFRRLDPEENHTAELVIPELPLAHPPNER
As to the kind of experiment: PD-1/PD-L1 Homogeneous Time-Resolved Fluorescence (HTRF) Binding Assay. To be noted: 25° C., PBS buffer (pH 7.4), 40 minutes preincubation with inhibitors. The method, boiled down: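 Fc-tagged human PD-1 (25-167) and His-tagged PD-L1 (19-238), listed as […] and 10 nM final, preincubated 40 min with inhibitors in PBS pH 7.4, 0.05% Tween-20, 0.1% BSA, 1% DMSO, 25 °C. Eu anti-IgG/APC anti-His added, 60 min, 665/620 nm HTRF ratio; IC50 fitted from percent control activity.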
As to `Cc1c(-c2nc3c(s2)CN(C(=O)CN(C)C)C3)cccc1-c1cccc(Nc2nccc3cc(CN4CC[C@H](CC(=O)O)C4)cnc23)c1Cl` [Example 91, (R)-2-(1-((8-((2-chloro-3′-(5-(dimethylglycyl)-5,6-dihydro-4H-pyrrolo[3,4-d]thiazol-2-yl)-2′-methyl-[1,1′-biphenyl]-3-yl)amino)-1,7-naphthyridin-3-yl)methyl)pyrrolidin-3-yl)acetic acid], the IC50 (usually the concentration that inhibits the measured activity by half) was at most 10 nM. To `Cc1c(-c2nc3c(s2)CN(C(=O)CN(C)C)C3)cccc1-c1cccc(Nc2nccc3cc(CN4CC5CC4CC5C(=O)O)cnc23)c1Cl` (stereo not drawn) [Example 92, 2-((8-((2-chloro-3′-(5-(dimethylglycyl)-5,6-dihydro-4H-pyrrolo[3,4-d]thiazol-2-yl)-2′-methyl-[1,1′-biphenyl]-3-yl)amino)-1,7-naphthyridin-3-yl)methyl)-2-azabicyclo[2.2.1]heptane-5-carboxylic acid] belongs at most 10 nM.

`CCN(C)CC(=O)N1Cc2nc(-c3cccc(-c4cccc(Nc5nccc6cc(CN7CC[C@H](CC(=O)O)C7)cnc56)c4Cl)c3C)sc2C1` [Example 93, (R)-2-(1-((8-(2-chloro-3′-(5-(2-(ethyl(methyl)amino)acetyl)-5,6-dihydro-4H-pyrrolo[3,4-d]thiazol-2-yl)-2′-methylbiphenyl-3-ylamino)-1,7-naphthyridin-3-yl)methyl)pyrrolidin-3-yl)acetic acid]: the IC50 was in the range of 10 to 100 nM.

On to `CCN(C)CC(=O)N1Cc2nc(-c3cccc(-c4cccc(Nc5nccc6cc(CN7CC8CC7CC8C(=O)O)cnc56)c4Cl)c3C)sc2C1` (stereo not drawn) [Example 94, 2-((8-(2-chloro-3′-(5-(2-(ethyl(methyl)amino)acetyl)-5,6-dihydro-4H-pyrrolo[3,4-d]thiazol-2-yl)-2′-methylbiphenyl-3-ylamino)-1,7-naphthyridin-3-yl)methyl)-2-azabicyclo[2.2.1]heptane-5-carboxylic acid], for which the IC50 was at most 10 nM. To `Cc1c(-c2nc3c(s2)CN(C(=O)CN2CC[C@@H](O)C2)C3)cccc1-c1cccc(Nc2nccc3cc(CN4CC[C@@H](C(=O)O)C4)cnc23)c1Cl` [Example 95, (R)-1-((8-((2-chloro-3′-(5-(2-((R)-3-hydroxypyrrolidin-1-yl)acetyl)-5,6-dihydro-4H-pyrrolo[3,4-d]thiazol-2-yl)-2′-methyl-[1,1′-biphenyl]-3-yl)amino)-1,7-naphthyridin-3-yl)methyl)pyrrolidine-3-carboxylic acid] belongs at most 10 nM; to `Cc1c(-c2nc3c(s2)CN(C(=O)CN(C)CCO)C3)cccc1-c1cccc(Nc2nccc3cc(CN4CC[C@@H](C(=O)O)C4)cnc23)c1Cl` [Example 96, (R)-1-((8-((2-chloro-3′-(5-(N-(2-hydroxyethyl)-N-methylglycyl)-5,6-dihydro-4H-pyrrolo[3,4-d]thiazol-2-yl)-2′-methyl-[1,1′-biphenyl]-3-yl)amino)-1,7-naphthyridin-3-yl)methyl)pyrrolidine-3-carboxylic acid], at most 10 nM. In the case of `Cc1c(-c2nc3c(s2)CN(C(=O)CN2CC[C@H](O)C2)C3)cccc1-c1cccc(Nc2nccc3cc(CN4CC[C@@H](C(=O)O)C4)cnc23)c1Cl` [Example 97, (R)-1-((8-((2-chloro-3′-(5-(2-((S)-3-hydroxypyrrolidin-1-yl)acetyl)-5,6-dihydro-4H-pyrrolo[3,4-d]thiazol-2-yl)-2′-methyl-[1,1′-biphenyl]-3-yl)amino)-1,7-naphthyridin-3-yl)methyl)pyrrolidine-3-carboxylic acid], the IC50 was at most 10 nM.

In the case of `Cc1c(-c2nc3c(s2)CN(C(=O)CN2CC(O)C2)C3)cccc1-c1cccc(Nc2nccc3cc(CN4CC[C@@H](C(=O)O)C4)cnc23)c1Cl` [Example 98, (R)-1-((8-((2-chloro-3′-(5-(2-(3-hydroxyazetidin-1-yl)acetyl)-5,6-dihydro-4H-pyrrolo[3,4-d]thiazol-2-yl)-2′-methyl-[1,1′-biphenyl]-3-yl)amino)-1,7-naphthyridin-3-yl)methyl)pyrrolidine-3-carboxylic acid], the IC50 is at most 10 nM. Consider `Cc1c(NC(=O)c2nc3c(n2C)CCN(C[C@H]2CC[C@@H](C(=O)O)CC2)C3)cccc1-c1cccc(Nc2nccc3cc(CN4CC[C@@H](O)C4)cnc23)c1C` [Example 99, Cis-4-((2-(3′-(3-(((R)-3-hydroxypyrrolidin-1-yl)methyl)-1,7-naphthyridin-8-ylamino)-2,2′-dimethylbiphenyl-3-ylcarbamoyl)-1-methyl-6,7-dihydro-1H-imidazo[4,5-c]pyridin-5(4H)-yl)methyl)cyclohexanecarboxylic acid], for which the IC50 was at most 10 nM.
